Measurements as given in ChEMBL document CHEMBL5649169 (ChemMedChem, 2018).

Columns and labels:
[1] = molecular target: 26S proteasome regulatory subunit 6A (Homo sapiens) (UniProt P17980); further: assay method not described here
[2] = molecular target: Glia maturation factor gamma (Homo sapiens) (UniProt O60234); further: assay method not described here
[3] = molecular target: GTP-binding nuclear protein Ran (Homo sapiens) (UniProt P62826); further: assay method not described here
Ephrin type-B receptor 4 = Ephrin type-B receptor 4 (Homo sapiens, UniProt P54760); format: cell-based, HEK293T
[4] = molecular target: Histone H4 (Homo sapiens) (UniProt P62805); further: assay method not described here
[5] = molecular target: AP2-associated protein kinase 1 (Homo sapiens) (UniProt Q2M2I8); further: assay method not described here
[6] = molecular target: Heterogeneous nuclear ribonucleoprotein Q (Homo sapiens) (UniProt O60506); further: assay method not described here
[7] = molecular target: Mitochondrial 2-oxoglutarate/malate carrier protein (Homo sapiens) (UniProt Q02978); further: assay method not described here
[8] = molecular target: Cytochrome c oxidase subunit 5A, mitochondrial (Homo sapiens) (UniProt P20674); further: assay method not described here
[9] = molecular target: Transmembrane emp24 domain-containing protein 9 (Homo sapiens) (UniProt Q9BVK6); further: assay method not described here
[10] = molecular target: Vesicle-trafficking protein SEC22b (Homo sapiens) (UniProt O75396); further: assay method not described here
Erlin-1 (Homo sapiens) = Erlin-1 (Homo sapiens) (UniProt O75477); further: assay method not described here
[11] = molecular target: Small ribosomal subunit protein uS15 (Homo sapiens) (UniProt P62277); further: assay method not described here
[12] = molecular target: Annexin A6 (Homo sapiens) (UniProt P08133); further: assay method not described here
Annexin A6 (Homo sapiens), sequence (P08133 whole entry): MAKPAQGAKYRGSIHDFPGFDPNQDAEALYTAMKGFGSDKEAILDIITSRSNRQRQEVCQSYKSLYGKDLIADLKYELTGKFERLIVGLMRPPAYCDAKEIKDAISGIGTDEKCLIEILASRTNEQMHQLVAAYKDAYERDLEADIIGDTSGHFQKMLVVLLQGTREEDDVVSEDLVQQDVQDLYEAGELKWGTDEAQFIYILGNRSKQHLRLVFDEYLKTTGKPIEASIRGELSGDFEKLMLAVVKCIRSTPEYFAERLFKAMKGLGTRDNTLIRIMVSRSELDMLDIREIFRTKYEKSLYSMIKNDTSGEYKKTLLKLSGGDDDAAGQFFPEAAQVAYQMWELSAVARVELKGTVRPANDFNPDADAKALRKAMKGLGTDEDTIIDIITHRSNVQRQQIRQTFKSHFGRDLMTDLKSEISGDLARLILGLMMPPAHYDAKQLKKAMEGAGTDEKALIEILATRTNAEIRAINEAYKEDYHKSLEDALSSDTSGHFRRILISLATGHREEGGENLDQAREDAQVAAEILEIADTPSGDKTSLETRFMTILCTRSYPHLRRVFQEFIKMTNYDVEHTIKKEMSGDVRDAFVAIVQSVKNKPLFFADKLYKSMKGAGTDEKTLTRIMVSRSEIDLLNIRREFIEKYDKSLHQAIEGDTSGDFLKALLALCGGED

[13] = molecular target: Serrate RNA effector molecule homolog (Homo sapiens) (UniProt Q9BXP5); further: assay method not described here
Serrate RNA effector molecule homolog (Homo sapiens), sequence (Q9BXP5 whole entry): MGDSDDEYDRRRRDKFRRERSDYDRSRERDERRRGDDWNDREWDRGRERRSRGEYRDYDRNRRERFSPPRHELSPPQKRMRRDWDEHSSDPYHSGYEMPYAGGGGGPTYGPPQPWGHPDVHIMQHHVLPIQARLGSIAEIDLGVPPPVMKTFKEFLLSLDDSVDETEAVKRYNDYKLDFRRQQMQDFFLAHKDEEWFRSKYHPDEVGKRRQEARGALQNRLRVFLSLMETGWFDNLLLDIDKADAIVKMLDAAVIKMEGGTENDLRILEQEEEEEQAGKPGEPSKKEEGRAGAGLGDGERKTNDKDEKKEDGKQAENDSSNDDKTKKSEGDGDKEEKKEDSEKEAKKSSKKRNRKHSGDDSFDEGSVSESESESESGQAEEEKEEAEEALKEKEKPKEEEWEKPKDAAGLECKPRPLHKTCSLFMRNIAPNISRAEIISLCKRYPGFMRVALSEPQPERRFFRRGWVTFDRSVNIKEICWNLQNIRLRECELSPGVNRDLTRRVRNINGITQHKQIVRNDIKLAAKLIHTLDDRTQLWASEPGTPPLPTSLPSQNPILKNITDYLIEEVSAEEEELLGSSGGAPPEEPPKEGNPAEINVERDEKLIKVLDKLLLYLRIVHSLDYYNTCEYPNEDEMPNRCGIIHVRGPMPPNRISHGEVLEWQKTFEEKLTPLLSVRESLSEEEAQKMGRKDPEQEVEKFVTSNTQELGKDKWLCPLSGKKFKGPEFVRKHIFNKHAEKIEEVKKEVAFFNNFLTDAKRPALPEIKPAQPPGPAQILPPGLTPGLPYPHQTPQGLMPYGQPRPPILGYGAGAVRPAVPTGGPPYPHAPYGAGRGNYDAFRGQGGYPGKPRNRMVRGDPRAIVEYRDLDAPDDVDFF

[14] = molecular target: dCTP pyrophosphatase 1 (Homo sapiens) (UniProt Q9H773); further: assay method not described here
dCTP pyrophosphatase 1 (Homo sapiens), sequence (Q9H773 whole entry): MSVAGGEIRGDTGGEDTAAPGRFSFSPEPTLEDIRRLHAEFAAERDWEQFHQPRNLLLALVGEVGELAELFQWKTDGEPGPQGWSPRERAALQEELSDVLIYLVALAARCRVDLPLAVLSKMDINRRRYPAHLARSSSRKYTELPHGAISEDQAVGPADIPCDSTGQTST

[15] = molecular target: Very-long-chain enoyl-CoA reductase (Homo sapiens) (UniProt Q9NZ01); further: assay method not described here
Very-long-chain enoyl-CoA reductase (Homo sapiens), sequence (Q9NZ01 whole entry): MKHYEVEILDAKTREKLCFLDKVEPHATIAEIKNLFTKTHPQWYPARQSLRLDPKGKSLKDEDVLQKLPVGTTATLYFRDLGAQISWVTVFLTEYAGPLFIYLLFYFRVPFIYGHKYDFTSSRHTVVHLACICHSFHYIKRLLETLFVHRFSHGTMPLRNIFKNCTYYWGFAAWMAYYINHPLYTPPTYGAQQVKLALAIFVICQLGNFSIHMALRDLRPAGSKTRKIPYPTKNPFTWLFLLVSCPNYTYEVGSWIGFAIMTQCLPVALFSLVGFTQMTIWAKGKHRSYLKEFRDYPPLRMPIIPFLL

Homo sapiens [16] = species on record: Homo sapiens; further: assay method not described here
[17] = molecular target: Nucleophosmin (Homo sapiens) (UniProt P06748); further: assay method not described here
[18] = molecular target: Prohibitin-2 (Homo sapiens) (UniProt Q99623); further: assay method not described here
Cofilin-1 (Homo sapiens) = Cofilin-1 (Homo sapiens) (UniProt P23528); further: assay method not described here
[19] = molecular target: Prelamin-A/C (Homo sapiens) (UniProt P02545); further: assay method not described here
Prelamin-A/C (Homo sapiens), sequence (P02545 whole entry): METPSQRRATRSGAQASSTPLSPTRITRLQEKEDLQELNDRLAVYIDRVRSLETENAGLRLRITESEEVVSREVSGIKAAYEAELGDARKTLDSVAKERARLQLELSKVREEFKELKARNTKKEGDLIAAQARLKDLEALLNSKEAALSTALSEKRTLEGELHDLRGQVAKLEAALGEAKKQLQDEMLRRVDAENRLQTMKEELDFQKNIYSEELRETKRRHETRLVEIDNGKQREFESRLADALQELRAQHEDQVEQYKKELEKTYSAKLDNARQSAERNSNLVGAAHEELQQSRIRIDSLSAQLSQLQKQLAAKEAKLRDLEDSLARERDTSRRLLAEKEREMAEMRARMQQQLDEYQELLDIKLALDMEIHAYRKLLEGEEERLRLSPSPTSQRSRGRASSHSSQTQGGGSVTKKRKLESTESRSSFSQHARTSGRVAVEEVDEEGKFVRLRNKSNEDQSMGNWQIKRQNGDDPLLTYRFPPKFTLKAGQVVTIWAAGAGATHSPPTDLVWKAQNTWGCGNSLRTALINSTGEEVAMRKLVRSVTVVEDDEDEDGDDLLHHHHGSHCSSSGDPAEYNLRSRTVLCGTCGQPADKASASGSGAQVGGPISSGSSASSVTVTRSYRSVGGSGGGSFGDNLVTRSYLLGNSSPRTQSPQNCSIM

[20] = molecular target: Gem-associated protein 5 (Homo sapiens) (UniProt Q8TEQ6); further: assay method not described here
[21] = molecular target: Leucine-rich repeat-containing protein 47 (Homo sapiens) (UniProt Q8N1G4); further: assay method not described here
[22] = molecular target: Protein disulfide-isomerase A3 (Homo sapiens) (UniProt P30101); further: assay method not described here
[23] = molecular target: Protein SDA1 homolog (Homo sapiens) (UniProt Q9NVU7); further: assay method not described here
[24] = molecular target: Heat shock 70 kDa protein 4 (Homo sapiens) (UniProt P34932); further: assay method not described here
[25] = molecular target: Atypical kinase COQ8A, mitochondrial (Homo sapiens) (UniProt Q8NI60); further: assay method not described here
[26] = molecular target: Cleavage and polyadenylation specificity factor subunit 6 (Homo sapiens) (UniProt Q16630); further: assay method not described here
Cleavage and polyadenylation specificity factor subunit 6 (Homo sapiens), sequence (Q16630 whole entry): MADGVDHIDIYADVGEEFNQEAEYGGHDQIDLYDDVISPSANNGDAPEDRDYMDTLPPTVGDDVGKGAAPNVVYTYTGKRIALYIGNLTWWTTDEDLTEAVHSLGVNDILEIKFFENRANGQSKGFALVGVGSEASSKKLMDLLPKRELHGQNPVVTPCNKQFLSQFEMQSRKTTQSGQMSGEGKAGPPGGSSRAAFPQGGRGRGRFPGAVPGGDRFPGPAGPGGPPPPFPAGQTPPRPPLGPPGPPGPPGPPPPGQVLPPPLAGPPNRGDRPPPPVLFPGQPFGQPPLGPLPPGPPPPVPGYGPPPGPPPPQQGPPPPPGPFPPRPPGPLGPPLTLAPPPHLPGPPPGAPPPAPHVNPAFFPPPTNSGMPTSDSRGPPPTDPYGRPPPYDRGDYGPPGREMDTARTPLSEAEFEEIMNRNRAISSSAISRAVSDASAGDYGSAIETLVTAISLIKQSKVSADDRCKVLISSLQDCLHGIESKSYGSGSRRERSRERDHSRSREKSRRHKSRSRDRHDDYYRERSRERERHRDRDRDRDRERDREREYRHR

[27] = molecular target: Acyl-CoA dehydrogenase family member 10 (Homo sapiens) (UniProt Q6JQN1); further: assay method not described here
[28] = molecular target: Small ribosomal subunit protein eS4, X isoform (Homo sapiens) (UniProt P62701); further: assay method not described here
[29] = molecular target: Endoplasmic reticulum junction formation protein lunapark (Homo sapiens) (UniProt Q9C0E8); further: assay method not described here
[30] = molecular target: Thiol S-methyltransferase TMT1A (Homo sapiens) (UniProt Q9H8H3); further: assay method not described here
Thiol S-methyltransferase TMT1A (Homo sapiens), sequence (Q9H8H3 whole entry): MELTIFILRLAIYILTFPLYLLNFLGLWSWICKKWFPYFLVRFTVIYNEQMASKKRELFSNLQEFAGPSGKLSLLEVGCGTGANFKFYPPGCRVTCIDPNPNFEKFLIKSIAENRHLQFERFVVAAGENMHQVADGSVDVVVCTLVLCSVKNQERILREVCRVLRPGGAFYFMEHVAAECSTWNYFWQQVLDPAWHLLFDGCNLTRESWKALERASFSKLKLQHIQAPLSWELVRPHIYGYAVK

[31] = molecular target: Band 4.1-like protein 2 (Homo sapiens) (UniProt O43491); further: assay method not described here
[32] = molecular target: Mitogen-activated protein kinase kinase kinase 6 (Homo sapiens) (UniProt O95382); further: assay method not described here
Septin-9 (Homo sapiens) = Septin-9 (Homo sapiens) (UniProt Q9UHD8); further: assay method not described here
Homo sapiens [33] = species on record: Homo sapiens; remark: listed apart in the source; further: assay method not described here
[34] = molecular target: Hexokinase-1 (Homo sapiens) (UniProt P19367); further: assay method not described here
Hexokinase-1 (Homo sapiens), sequence (P19367 whole entry): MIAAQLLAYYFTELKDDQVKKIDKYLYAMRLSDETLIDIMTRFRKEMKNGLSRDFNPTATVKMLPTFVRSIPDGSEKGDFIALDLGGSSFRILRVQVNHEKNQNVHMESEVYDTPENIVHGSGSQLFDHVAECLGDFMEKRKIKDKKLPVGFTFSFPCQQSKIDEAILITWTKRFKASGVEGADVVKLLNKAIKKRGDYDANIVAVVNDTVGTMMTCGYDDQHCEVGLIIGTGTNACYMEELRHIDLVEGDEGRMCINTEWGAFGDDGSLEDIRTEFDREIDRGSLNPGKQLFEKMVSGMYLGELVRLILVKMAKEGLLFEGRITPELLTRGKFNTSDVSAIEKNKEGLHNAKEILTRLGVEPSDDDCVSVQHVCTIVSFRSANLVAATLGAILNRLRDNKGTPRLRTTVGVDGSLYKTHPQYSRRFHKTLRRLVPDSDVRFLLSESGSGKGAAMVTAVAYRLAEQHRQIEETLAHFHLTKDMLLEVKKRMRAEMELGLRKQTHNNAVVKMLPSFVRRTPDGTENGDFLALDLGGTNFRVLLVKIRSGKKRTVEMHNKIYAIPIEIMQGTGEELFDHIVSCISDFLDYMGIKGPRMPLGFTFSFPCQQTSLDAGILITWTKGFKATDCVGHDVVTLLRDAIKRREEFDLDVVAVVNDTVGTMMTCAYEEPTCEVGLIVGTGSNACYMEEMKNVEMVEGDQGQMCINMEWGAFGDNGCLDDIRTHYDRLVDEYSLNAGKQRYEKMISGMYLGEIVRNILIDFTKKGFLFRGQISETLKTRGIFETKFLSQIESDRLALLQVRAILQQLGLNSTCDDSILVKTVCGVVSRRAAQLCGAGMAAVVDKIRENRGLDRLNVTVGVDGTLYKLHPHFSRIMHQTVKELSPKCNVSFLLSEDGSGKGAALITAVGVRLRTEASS

[35] = molecular target: 3-beta-hydroxysteroid-Delta(8),Delta(7)-isomerase (Homo sapiens) (UniProt Q15125); further: assay method not described here
Ephrin type-A receptor 2 = Ephrin type-A receptor 2 (Homo sapiens, UniProt P29317); further: assay method not described here
[36] = molecular target: Protein S100-A11 (Homo sapiens) (UniProt P31949); further: assay method not described here
Protein S100-A11 (Homo sapiens), sequence (P31949 whole entry): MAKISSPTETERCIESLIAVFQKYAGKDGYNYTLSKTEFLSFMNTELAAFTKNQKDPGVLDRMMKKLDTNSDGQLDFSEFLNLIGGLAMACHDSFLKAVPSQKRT

[37] = molecular target: RAC-gamma serine/threonine-protein kinase (Homo sapiens) (UniProt Q9Y243); further: assay method not described here
[38] = molecular target: 5'-AMP-activated protein kinase catalytic subunit alpha-1 (Homo sapiens) (UniProt Q13131); further: assay method not described here
[39] = molecular target: Calcium/calmodulin-dependent protein kinase type IV (Homo sapiens) (UniProt Q16566); further: assay method not described here
[40] = molecular target: Aurora kinase B (Homo sapiens) (UniProt Q96GD4); further: assay method not described here
Aurora kinase B (Homo sapiens), sequence (Q96GD4 whole entry): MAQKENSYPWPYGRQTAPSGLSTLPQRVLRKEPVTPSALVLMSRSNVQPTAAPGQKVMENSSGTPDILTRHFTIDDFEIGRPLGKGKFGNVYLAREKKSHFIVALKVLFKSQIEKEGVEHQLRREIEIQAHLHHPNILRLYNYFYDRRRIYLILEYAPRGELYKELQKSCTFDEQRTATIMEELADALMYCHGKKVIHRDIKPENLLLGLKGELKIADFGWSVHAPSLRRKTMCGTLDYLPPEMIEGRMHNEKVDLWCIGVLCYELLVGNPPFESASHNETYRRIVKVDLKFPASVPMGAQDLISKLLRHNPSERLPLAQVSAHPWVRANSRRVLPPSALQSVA

[41] = molecular target: Cell division cycle 5-like protein (Homo sapiens) (UniProt Q99459); further: assay method not described here
[42] = molecular target: Zinc finger CCCH-type antiviral protein 1 (Homo sapiens) (UniProt Q7Z2W4); further: assay method not described here

**Q.** How did the ED50 [1] turn out when `Cc1ccc(C(=O)Nc2cccc(C(F)(F)F)c2)cc1Nc1nc(-c2cccnc2)nc2c1cnn2C` was run?
**A.** 7.62 µM

**Q.** What about the ED50 [2] of the same molecule?
**A.** 70.9 µM

**Q.** What about the ED50 [3] of the same molecule?
**A.** 4.29 µM

**Q.** What about the IC50 (Ephrin type-B receptor 4) of the same molecule?
**A.** 0.003 µM

**Q.** And the ED50 [4]?
**A.** 4.09 µM

**Q.** And the ED50 [5]?
**A.** 6.19 µM

**Q.** What about the ED50 [6] of the same molecule?
**A.** 0.0225 µM

**Q.** What about the ED50 [7] of the same molecule?
**A.** 0.0531 µM

**Q.** What about the ED50 [8] of the same molecule?
**A.** 3.62 µM

**Q.** What about the ED50 [9] of the same molecule?
**A.** 67.9 µM

**Q.** And the ED50 [10]?
**A.** 103 µM

**Q.** And the ED50 (Erlin-1 (Homo sapiens))?
**A.** 0.367 µM

**Q.** And the ED50 [11]?
**A.** 2.21 µM

**Q.** And the ED50 [12]?
**A.** 9 µM

**Q.** And the ED50 [13]?
**A.** 1.13 µM

**Q.** What about the ED50 [14] of the same molecule?
**A.** 5.18 µM

**Q.** And the ED50 [15]?
**A.** 3.86 µM

**Q.** What about the ED50 (Homo sapiens [16]) of the same molecule?
**A.** 0.878 µM

**Q.** And the ED50 [17]?
**A.** 0.00826 µM

**Q.** And the ED50 [18]?
**A.** 7.38 µM

**Q.** And the ED50 (Cofilin-1 (Homo sapiens))?
**A.** 7.3 µM

**Q.** What about the ED50 [19] of the same molecule?
**A.** 5.41 µM

**Q.** What about the ED50 [20] of the same molecule?
**A.** 105 µM

**Q.** And the ED50 [21]?
**A.** 0.0207 µM

**Q.** What about the ED50 [22] of the same molecule?
**A.** 3.03 µM

**Q.** And the ED50 [23]?
**A.** 0.065 µM

**Q.** And the ED50 [24]?
**A.** 3.18 µM

**Q.** What about the ED50 [25] of the same molecule?
**A.** 0.39 µM

**Q.** What about the ED50 [26] of the same molecule?
**A.** 15 µM

**Q.** And the ED50 [27]?
**A.** 11.5 µM

**Q.** What about the ED50 [28] of the same molecule?
**A.** 0.0296 µM

**Q.** What about the ED50 [29] of the same molecule?
**A.** 15.5 µM

**Q.** And the ED50 [30]?
**A.** 30.4 µM

**Q.** What about the ED50 [31] of the same molecule?
**A.** 0.00541 µM

**Q.** What about the ED50 [32] of the same molecule?
**A.** 1.26 µM

**Q.** And the ED50 (Septin-9 (Homo sapiens))?
**A.** 8.65 µM

**Q.** What about the ED50 (Homo sapiens [33]) of the same molecule?
**A.** 3.01 µM

**Q.** And the ED50 [34]?
**A.** 0.00555 µM

**Q.** And the ED50 [35]?
**A.** 0.0148 µM

**Q.** And the ED50 (Ephrin type-A receptor 2)?
**A.** 0.58 µM

**Q.** What about the ED50 [36] of the same molecule?
**A.** 3.06 µM

**Q.** What about the ED50 [37] of the same molecule?
**A.** 0.0059 µM

**Q.** What about the ED50 [38] of the same molecule?
**A.** 13.2 µM

**Q.** And the ED50 [39]?
**A.** 2.34 µM

**Q.** What about the ED50 [40] of the same molecule?
**A.** 11.6 µM

**Q.** And the ED50 [41]?
**A.** 9.84 µM

**Q.** What about the ED50 [42] of the same molecule?
**A.** 13.3 µM

**Q.** `Cc1ccc(C(=O)Nc2cccc(C(F)(F)F)c2)cc1Nc1nc(-c2cccnc2)nc2nn(C)cc12` was tested. Which ED50 [1] did it give?
**A.** 0.00497 µM

**Q.** And the ED50 [2]?
**A.** 0.00291 µM

**Q.** What about the ED50 [3] of the same molecule?
**A.** 0.116 µM

**Q.** What about the IC50 (Ephrin type-B receptor 4) of the same molecule?
**A.** 1.66 µM

**Q.** And the ED50 [4]?
**A.** 0.00989 µM

**Q.** And the ED50 [5]?
**A.** 1560 µM

**Q.** What about the ED50 [6] of the same molecule?
**A.** 0.296 µM

**Q.** And the ED50 [7]?
**A.** 0.00199 µM

**Q.** And the ED50 [8]?
**A.** 3250 µM

**Q.** And the ED50 [9]?
**A.** 0.00396 µM

**Q.** And the ED50 [10]?
**A.** 3.32 µM

**Q.** What about the ED50 (Erlin-1 (Homo sapiens)) of the same molecule?
**A.** 0.00442 µM

**Q.** What about the ED50 [11] of the same molecule?
**A.** 0.00657 µM

**Q.** And the ED50 [12]?
**A.** 0.0326 µM

**Q.** What about the ED50 [13] of the same molecule?
**A.** 1.29 µM

**Q.** What about the ED50 [14] of the same molecule?
**A.** 0.0305 µM

**Q.** And the ED50 [15]?
**A.** 1.31 µM

**Q.** What about the ED50 (Homo sapiens [16]) of the same molecule?
**A.** 0.217 µM

**Q.** What about the ED50 [17] of the same molecule?
**A.** 104 µM

**Q.** What about the ED50 [18] of the same molecule?
**A.** 0.0686 µM

**Q.** What about the ED50 (Cofilin-1 (Homo sapiens)) of the same molecule?
**A.** 0.0624 µM

**Q.** And the ED50 [19]?
**A.** 2.4 µM

**Q.** What about the ED50 [20] of the same molecule?
**A.** 0.232 µM

**Q.** And the ED50 [21]?
**A.** 0.00913 µM

**Q.** What about the ED50 [22] of the same molecule?
**A.** 0.103 µM

**Q.** And the ED50 [23]?
**A.** 0.000949 µM

**Q.** What about the ED50 [24] of the same molecule?
**A.** 0.0777 µM

**Q.** What about the ED50 [25] of the same molecule?
**A.** 8.58 µM

**Q.** What about the ED50 [26] of the same molecule?
**A.** 0.349 µM

**Q.** What about the ED50 [27] of the same molecule?
**A.** 0.434 µM

**Q.** What about the ED50 [28] of the same molecule?
**A.** 0.515 µM

**Q.** And the ED50 [29]?
**A.** 0.287 µM

**Q.** What about the ED50 [30] of the same molecule?
**A.** 2.97 µM

**Q.** What about the ED50 [31] of the same molecule?
**A.** 0.338 µM

**Q.** What about the ED50 [32] of the same molecule?
**A.** 8.27 µM

**Q.** And the ED50 (Septin-9 (Homo sapiens))?
**A.** 0.109 µM

**Q.** What about the ED50 (Homo sapiens [33]) of the same molecule?
**A.** 0.135 µM

**Q.** What about the ED50 [34] of the same molecule?
**A.** 173 µM

**Q.** What about the ED50 [35] of the same molecule?
**A.** 0.0123 µM

**Q.** What about the ED50 (Ephrin type-A receptor 2) of the same molecule?
**A.** 6.17 µM

**Q.** What about the ED50 [36] of the same molecule?
**A.** 30.9 µM

**Q.** What about the ED50 [37] of the same molecule?
**A.** 3.14 µM

**Q.** And the ED50 [38]?
**A.** 0.0591 µM

**Q.** And the ED50 [39]?
**A.** 2.78 µM

**Q.** And the ED50 [40]?
**A.** 0.128 µM

**Q.** And the ED50 [41]?
**A.** 0.0985 µM

**Q.** And the ED50 [42]?
**A.** 0.0483 µM
